According to ChEMBL document CHEMBL5241112, “Insights into the recent progress in the medicinal chemistry of pyranopyrimidine analogs” (RSC Med Chem, 2022):
≈ marks a conversion by molar mass, not a printed value.

Columns and labels:
Staphylococcus aureus [1] = experiment: Antibacterial activity against Staphylococcus aureus MLS-16 MTCC 2940 assessed as bacterial growth inhibition incubated for 24 hrs by broth microdilution method; type: functional
Staphylococcus aureus [2] = experiment: Antibacterial activity against Staphylococcus aureus MTCC 96 assessed as bacterial growth inhibition incubated for 24 hrs by broth microdilution method; type: functional
[3] = molecular target: T1, Free fatty acid receptor 3 (Homo sapiens, UniProt O14843); experiment: Agonist activity at FFA3 (unknown origin) expressed in human Flp-In-293 cells assessed as inhibition of forskolin-stimulated cAMP accumulation incubated for 30 mins by Lance cAMP assay; type: cell-based
T1 sequence (O14843 whole entry): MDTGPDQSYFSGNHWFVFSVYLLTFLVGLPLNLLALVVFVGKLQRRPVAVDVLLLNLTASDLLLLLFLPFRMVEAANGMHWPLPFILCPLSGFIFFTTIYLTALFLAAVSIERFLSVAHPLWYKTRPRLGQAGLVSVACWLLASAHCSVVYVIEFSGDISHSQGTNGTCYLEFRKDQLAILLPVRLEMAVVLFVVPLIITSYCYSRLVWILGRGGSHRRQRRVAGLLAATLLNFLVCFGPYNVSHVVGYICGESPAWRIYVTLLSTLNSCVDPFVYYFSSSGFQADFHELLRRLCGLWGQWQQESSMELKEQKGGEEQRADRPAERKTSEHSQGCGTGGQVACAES

[4] = molecular target: Hydroxycarboxylic acid receptor 2 (Homo sapiens, UniProt Q8TDS4); experiment: Agonist activity at human HCA2 expressed in human Flp-In-293 cells assessed as inhibition of forskolin-stimulated cAMP accumulation incubated for 30 mins by Lance cAMP assay; type: cell-based
Klebsiella pneumoniae [5] = experiment: Antimicrobial activity against Klebsiella pneumoniae ATCC 15380 assessed as diameter of inhibition zone at 20 mg/ml incubated for 24 hrs by disk diffusion method; type: functional; conditions: read-out: DIZ
Salmonella typhimurium [6] = experiment: Antibacterial activity against Salmonella typhimurium assessed as diameter of inhibition zone; type: functional, Salmonella enterica subsp. enterica serovar Typhimurium
Escherichia coli [7] = experiment: Antibacterial activity against Escherichia coli assessed as diameter of inhibition zone; type: functional
Staphylococcus aureus [8] = experiment: Antibacterial activity against Staphylococcus aureus assessed as diameter of inhibition zone; type: functional
Salmonella typhimurium [9] = experiment: Antibacterial activity against Salmonella typhimurium MTCC 98 assessed as bacterial growth inhibition by broth microdilution method; type: functional, Salmonella enterica subsp. enterica serovar Typhimurium; conditions: Salmonella enterica
Bacillus subtilis = experiment: Antibacterial activity against Bacillus subtilis assessed as diameter of inhibition zone; type: functional
A549 = experiment: Anticancer activity against human A549 cells assessed as reduction in cell viability incubated for 24 hrs by MTT assay; type: functional, cell-based; conditions: A549, 24 h
Penicillium chrysogenum [10] = experiment: Antifungal activity against Penicillium chrysogenum assessed as diameter of inhibition zone by disc diffusion method; type: functional
Aspergillus ochraceus [11] = experiment: Antifungal activity against Aspergillus ochraceus AUCC-230 assessed as diameter of inhibition zone incubated for 24 hrs by disc diffusion method; type: functional
Penicillium chrysogenum [12] = experiment: Antifungal activity against Penicillium chrysogenum AUCC-530 assessed as diameter of inhibition zone incubated for 24 hrs by disc diffusion method; type: functional
Aspergillus ochraceus [13] = experiment: Antifungal activity against Aspergillus ochraceus assessed as diameter of inhibition zone by disc diffusion method; type: functional
Alpha-glucosidase = Alpha-glucosidase (Saccharomyces cerevisiae S288c, UniProt P53341+P38158+P07265); experiment: Inhibition of Saccharomyces cerevisiae alpha-glucosidase preincubated for 5 mins followed by PNP-GLUC substrate addition and measured after 20 mins by spectroscopic analysis; type: protein assay
[14] = Inhibition of porcine pancreatic alpha-amylase preincubated for 10 mins followed by substrate starch addition and measured after 10 mins by colorimetric analysis; set-up: species or system Sus scrofa
Albumin = Albumin (Bos taurus, UniProt P02769); experiment: […] bovine serum albumin denaturation incubated for 23 mins by UV-Visible spectrophotometry
Escherichia coli [15] = experiment: Antibacterial activity against Escherichia coli MTCC 723 assessed as diameter of inhibition zone at 0.1 mg/ml incubated for 24 hrs by agar well diffusion method; type: functional; conditions: read-out: DIZ
Escherichia coli [16] = experiment: Antibacterial activity against Escherichia coli ATCC 25922 assessed as diameter of inhibition zone at 50 mg/ml incubated for 24 hrs by paper disk diffusion method; type: functional; conditions: read-out: DIZ
Staphylococcus aureus [17] = experiment: Antibacterial activity against Staphylococcus aureus NCIM 2654 assessed as diameter of inhibition zone incubated for 24 hrs by agar well diffusion method; type: functional
Candida albicans [18] = experiment: Antifungal activity against Candida albicans assessed as diameter of inhibition zone incubated for 48 hrs by agar well diffusion method; type: functional
[19] = Antioxidant activity assessed as DPPH radical scavenging activity at 12 ug incubated for 30 mins by spectrophotometric analysis; type: functional; conditions: dose 12.0 µg
Plasmodium falciparum = experiment: microbe, parasite or virus in culture
Pseudomonas aeruginosa = experiment: Antibacterial activity against Pseudomonas aeruginosa assessed as bacterial growth inhibition by broth microdilution method; type: functional
Aspergillus flavus = experiment: Antifungal activity against Aspergillus flavus assessed as fungal growth inhibition by broth microdilution method; type: functional
Candida albicans [20] = experiment: Antifungal activity against Candida albicans assessed as fungal growth inhibition by broth microdilution method; type: functional
Klebsiella pneumoniae [21] = experiment: Antibacterial activity against Klebsiella pneumoniae assessed as bacterial growth inhibition by broth microdilution method; type: functional
Staphylococcus aureus [22] = experiment: Antibacterial activity against Staphylococcus aureus assessed as bacterial growth inhibition by broth microdilution method; type: functional
Escherichia coli [23] = experiment: Antibacterial activity against Escherichia coli assessed as bacterial growth inhibition by broth microdilution method; type: functional

Hydroxycarboxylic acid receptor 2, sequence (Q8TDS4 whole entry, the tested form may be a part): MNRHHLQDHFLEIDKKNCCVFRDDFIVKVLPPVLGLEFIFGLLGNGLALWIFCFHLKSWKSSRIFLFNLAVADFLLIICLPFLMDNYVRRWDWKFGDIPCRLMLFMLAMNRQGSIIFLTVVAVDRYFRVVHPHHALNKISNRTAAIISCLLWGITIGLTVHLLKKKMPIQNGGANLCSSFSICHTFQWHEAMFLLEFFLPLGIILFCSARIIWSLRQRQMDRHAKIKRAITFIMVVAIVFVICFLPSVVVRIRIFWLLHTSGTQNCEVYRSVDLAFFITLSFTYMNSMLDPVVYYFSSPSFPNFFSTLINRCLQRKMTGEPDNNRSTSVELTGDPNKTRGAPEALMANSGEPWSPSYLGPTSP
Albumin, sequence (P02769 whole entry, the tested form may be a part): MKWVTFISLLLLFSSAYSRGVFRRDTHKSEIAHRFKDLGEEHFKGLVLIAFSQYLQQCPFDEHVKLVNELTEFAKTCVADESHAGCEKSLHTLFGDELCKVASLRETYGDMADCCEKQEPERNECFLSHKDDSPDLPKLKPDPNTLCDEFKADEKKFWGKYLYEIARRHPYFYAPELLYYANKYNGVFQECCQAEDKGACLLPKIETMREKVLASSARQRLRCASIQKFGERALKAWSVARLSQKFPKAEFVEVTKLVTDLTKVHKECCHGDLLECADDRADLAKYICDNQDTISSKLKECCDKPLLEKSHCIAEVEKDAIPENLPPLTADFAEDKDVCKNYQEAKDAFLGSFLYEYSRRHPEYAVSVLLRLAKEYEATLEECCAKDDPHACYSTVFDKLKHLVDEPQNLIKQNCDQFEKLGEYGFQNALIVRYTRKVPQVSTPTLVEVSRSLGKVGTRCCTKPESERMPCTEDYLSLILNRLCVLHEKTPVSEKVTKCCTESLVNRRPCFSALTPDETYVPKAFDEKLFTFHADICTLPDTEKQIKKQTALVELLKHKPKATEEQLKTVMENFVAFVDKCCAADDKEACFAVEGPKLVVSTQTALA

`Cc1cc2c(c(=O)o1)C(c1ccccc1)c1c(Nc3cccc([N+](=O)[O-])c3)ncnc1O2` (centres undefined) showed an MIC (Staphylococcus aureus [1]) of 15.6 µg/mL (≈ 36.4 µM) and an MIC (Staphylococcus aureus [2]) of 7.8 µg/mL (≈ 18.2 µM).

`CCCCc1cc(=O)oc2[nH]c(=S)[nH]c(=O)c12` showed an EC50 [3] of 0.22 µM and an EC50 [4] of 0.051 µM.

`Cc1ccc(C2C(C#N)=C(N)Oc3[nH]c(=O)[nH]c(=O)c32)o1` (centres undefined) showed a zone of inhibition at 20000 µg/mL (Klebsiella pneumoniae [5]) of 16 mm.

In the case of `CCCCc1cc(=O)oc2[nH]c(=O)[nH]c(=O)c12`, the EC50 [3] is reported as 0.22 µM.

`Cc1cc2c(c(=O)o1)C(c1ccccc1)c1c(Nc3ccc(Cl)cc3)ncnc1O2` (centres undefined) showed an MIC (Staphylococcus aureus [1]) of 15.6 µg/mL (≈ 37.3 µM).

`Cc1cc2c(c(=O)o1)C(c1ccc(F)cc1)c1c(Nc3ccc([N+](=O)[O-])cc3)ncnc1O2` (centres undefined) gave an MIC (Staphylococcus aureus [1]) of 15.6 µg/mL (≈ 34.9 µM) and an MIC (Staphylococcus aureus [2]) of 7.8 µg/mL (≈ 17.5 µM).

`CCc1cc(=O)oc2[nH]c(=S)[nH]c(=O)c12` gave an EC50 [3] of 0.22 µM and an EC50 [4] of 0.051 µM.

For `CCn1cc(C(=O)O)c(=O)c2cc(F)c(N3CCNCC3)cc21` [NORFLOXACIN], the “diameter of the inhibition zone (DIZ)” value (Salmonella typhimurium [6]) was 16 mm, the “diameter of the inhibition zone (DIZ)” value (Escherichia coli [7]) was 20 mm and the “diameter of the inhibition zone (DIZ)” value (Staphylococcus aureus [8]) was 14 mm. The MIC (Salmonella typhimurium [9]) was 10 µg/mL (≈ 31.3 µM) and the “diameter of the inhibition zone (DIZ)” value (Bacillus subtilis) was 24 mm.

In the case of `Cc1cc2c(c(=O)o1)C(c1ccc(F)cc1)c1c(Nc3ccccc3)ncnc1O2` (centres undefined), the MIC (Staphylococcus aureus [2]) is reported as 7.8 µg/mL (≈ 19.4 µM).

With `CCOC(=O)C1=C(C)Oc2nc(C)n(Cc3cn(-c4ccc(OC)cc4[N+](=O)[O-])nn3)c(=O)c2C1c1ccccc1` (centres undefined) the IC50 (A549) was 5.76 µM.

For NYSTATIN, the inhibition zone (IZ) (Penicillium chrysogenum [10]) was 24 mm, the inhibition zone (IZ) (Aspergillus ochraceus [11]) was 22 mm and the inhibition zone (IZ) (Penicillium chrysogenum [12]) was 24 mm. The inhibition zone (IZ) (Aspergillus ochraceus [13]) was 22 mm.

Compound `CCCc1cc(=O)oc2[nH]c(=S)[nH]c(=O)c12` has an EC50 [3] of 0.22 µM and an EC50 [4] of 0.051 µM.

Compound `O=c1cc(CCCCCl)c2c(=O)[nH]c(=S)[nH]c2o1` has an EC50 [3] of 0.22 µM and an EC50 [4] of 0.051 µM.

`COc1ccc(C2c3c(Nc4ccccc4)ncnc3Oc3cc(C)oc(=O)c32)cc1` (centres undefined) showed an MIC (Staphylococcus aureus [2]) of 7.8 µg/mL (≈ 18.9 µM).

`Cc1cc(=O)oc2[nH]c(=S)[nH]c(=O)c12` gave an EC50 [3] of 0.22 µM and an EC50 [4] of 0.051 µM.

`O=C(C1=C(c2ccccc2O)Oc2[nH]c(=S)[nH]c(=O)c2C1c1ccccc1)N1CCCCC1` (centres undefined) showed an IC50 (Alpha-glucosidase) of 7745 µM, an IC50 [14] of 22.1 µM and an IC50 (Albumin) of 19.9 µM. It also gave a zone of inhibition at 100 µg/mL (Escherichia coli [15]) of 13.1 mm.

With `O=c1[nH]c(-c2ccccc2)nc2c1C(c1ccc(Cl)cc1)C=C(c1cc3ccccc3oc1=O)O2` (centres undefined) the zone of inhibition at 50000 µg/mL (Escherichia coli [16]) was 10 mm.

With `Cc1n[nH]c2c1C(c1ccc(Cl)cc1)c1c([nH]c(=O)[nH]c1=O)O2` (centres undefined) the “diameter of the inhibition zone (DIZ)” value (Staphylococcus aureus [17]) was 27 mm, the “diameter of the inhibition zone (DIZ)” value (Candida albicans [18]) was 18 mm and the Activity [19] was 58.8%.

Compound `O=c1[nH]c(=O)c2c(CCCCCl)cc(=O)oc2[nH]1` has an EC50 [4] of 0.051 µM.

Compound `Cc1cc2c(c(=O)o1)C(c1ccccc1)c1c(Nc3ccccc3)ncnc1O2` (centres undefined) has an MIC (Staphylococcus aureus [1]) of 15.6 µg/mL (≈ 40.7 µM).

In the case of `C=C[C@H]1CN2CC[C@H]1C[C@H]2[C@H](O)c1ccnc2ccc(OC)cc12` [QUININE], the IC50 (Plasmodium falciparum) is reported as 0.268 µg/mL (≈ 0.826 µM).

Compound `CCOC(=O)C1=C(C)Oc2nc(C)n(Cc3cn(-c4ccc([N+](=O)[O-])cc4)nn3)c(=O)c2C1c1cccs1` (centres undefined) has an IC50 (A549) of 1.85 µM.

For `Cc1n[nH]c2c1C(c1ccc([N+](=O)[O-])cc1)c1c([nH]c(=O)[nH]c1=O)O2` (centres undefined), the “diameter of the inhibition zone (DIZ)” value (Staphylococcus aureus [17]) was 20 mm, the “diameter of the inhibition zone (DIZ)” value (Candida albicans [18]) was 12 mm and the Activity [19] was 98.4%.

Compound `CCOC(=O)C1=C(C)Oc2nc(C)n(Cc3cn(-c4ccc(C(C)=O)cc4)nn3)c(=O)c2C1c1ccccc1` (centres undefined) has an IC50 (A549) of 6.74 µM.

Work on `C1=COc2ncncc2C1` yielded a zone of inhibition at 100 µg/mL (Escherichia coli [15]) of 13.1 mm.

For `Cc1cc2c(c(=O)o1)C(c1ccccc1)c1c(Nc3ccc([N+](=O)[O-])cc3)ncnc1O2` (centres undefined), the MIC (Staphylococcus aureus [1]) was 15.6 µg/mL (≈ 36.4 µM) and the MIC (Staphylococcus aureus [2]) was 7.8 µg/mL (≈ 18.2 µM).

For `CCO/C=N/C1=C(C#N)C(c2cccc(OC)c2OC)c2c(n(C)c(=O)n(C)c2=O)O1` (centres undefined), the MIC (Pseudomonas aeruginosa) was 6.25 µg/mL (≈ 14.7 µM), the MIC (Aspergillus flavus) was 3.12 µg/mL (≈ 7.32 µM) and the MIC (Candida albicans [20]) was 6.25 µg/mL (≈ 14.7 µM). The MIC (Klebsiella pneumoniae [21]) was 6.25 µg/mL (≈ 14.7 µM), the MIC (Staphylococcus aureus [22]) was 6.25 µg/mL (≈ 14.7 µM) and the MIC (Escherichia coli [23]) was 6.25 µg/mL (≈ 14.7 µM).
